Measured values taken from patent publication US11622950B2.

Columns and labels:
[1] = tested on: BxPC3 pancreatic cancer cells; test: Oral anti-tumor efficacy in human BxPC3 pancreatic cancer xenografts in mice; format: in vivo, CD-1 nude mice; details: BxPC3 xenograft; oral dose of 100 mg/week for 4 weeks; versus 5% dextrose or untreated
Description: An acclimation period of 7 days was allowed between the arrival of the animal at the study site before tumor inoculation and experimentation. Mice were inoculated subcutaneously (SC) in the right flank with 2×10^6 human H460 NSCLC or BxPC3 pancreatic cancer cells that were suspended in 0.1 mL of Dulbeco's Phosphate Buffered Salt (PBS) solution using a 1 cc syringe with a 27-⅝ gauge needle. Tumor dimensions (length and width) were measured daily before, during and after treatment (using Vernier calipers) and the tumor volume was calculated using the prolate ellipsoid formula: (length×width^2)/2. Treatment with test or control articles began 8 days post tumor cell implantation when the tumor was approximately 300 mm^3.
A similar study was conducted in CD-1 nude mice (n=9) inoculated with 2×10^6 BxPC-3 cells. The study was initiated when tumors reached an average size of 150 mm^3 (day 0) and CPI-613 was administered at an oral dose of 100 mg/week for 4 weeks. A comparator arm (n=9) was conducted with IP treatment at a weekly dose of 25 mg/kg.

[2] = tested on: human H460 NSCLC cells; test: Oral anti-tumor efficacy in human H460 NSCLC xenografts in mice; format: in vivo, CD1-Nu/Nu female mice; details: H460 xenograft; oral 100 mg/kg on day 8, 15, 22, 29; versus 5% dextrose or untreated
Description: Human H460 NSCLC cells were obtained from American Type Cell Culture (ATCC) (catalog no. HTB-177, Manassas, Va.). These cells tested negative for viral contamination using the Mouse Antibody Production (MAP) test, performed by Charles River Labs Molecular Division, upon the receipt of the tumor cells from ATCC. The tumor cells were maintained at […] in a humidified 5% CO2 atmosphere in T225 tissue culture flasks containing 50 mL of Roswell Park Memorial Institute (RPMI)-1640 solution with 10% Fetal Bovine Serum (FBS) and 2 mM L-glutamine. Cells were split at a ratio of 1:10 every 2-3 days by trypsinization and resuspended in fresh medium in a new flask. Cells were harvested for experiments in the same way at 70-90% confluency.
CD1-Nu/Nu female mice, ˜4-6 weeks old were obtained from Charles River Laboratories. Mice were housed 5 to a cage in a micro-isolator room in the Department of Animal Laboratory Research of New York State University (SUNY) at Stony Brook. Light-dark cycles were 12 h each daily, with light from 7 a.m. to 7 p.m. […]
An acclimation period of 7 days was allowed between the arrival of the animal at the study site before tumor inoculation and experimentation. […] Tumor dimensions (length and width) were measured daily before, during and after treatment (using Vernier calipers) and the tumor volume was calculated using the prolate ellipsoid formula: (length×width^2)/2. […]

[3] = Clinical study of CPI-613 Drug Compound with gemcitabine hydrochloride and nab-paclitaxel: tolerance; format: in vivo; details: 500 mg/m^2 with Gemcitabine+nab-paclitaxel on days 1 and 15, human patients
Excerpt: Human patients suffering from locally advanced or metastatic pancreatic cancer are to be administered 6,8-bis(benzylsulfanyl)octanoic acid triethanolamine ion pair in combination with gemcitabine hydrochloride and nab-paclitaxel. Experimental procedures are described below.
[…] CPI-613 Drug Compound is 6,8-bis(benzylsulfanyl)octanoic acid triethanolamine ion pair.

Q: For `O=C(O)CCCCC(CCSCc1ccccc1)SCc1ccccc1` (stereo not drawn) [6,8-bis(benzylsulfanyl)octanoic acid], which tumor growth [1] is on record?
A: especially pronounced

Q: What about the tumor growth [2] of the same molecule?
A: grew much more slowly

Q: Which tolerance of regimen [3] does the source give for `O=C(O)CCCCC(CCSCc1ccccc1)SCc1ccccc1.OCCN(CCO)CCO` (stereo not drawn) [CPI-613 Drug Compound, 6,8-bis(benzylsulfanyl)octanoic acid triethanolamine ion pair] here?
A: excellent tolerance
